In brackets after ≈: the same amount, converted by molar mass. Values belong to the compound of their own block, whether it stands above or below them.
Legend:
[1] = system: HT-29 Human Colon Cancer Cells Transplanted into Nude Mice; assay: Preclinical chemotherapeutic xenograft study; type: in vivo; conditions: for Mean tumor Weights (mg) Following Treatments / Percent mean tumor weight gain (mg) following treatments: positive control 30 mg/kg daily for 5 days
Protocol: (§1) For the preclinical chemotherapeutic studies, in the absence of an maximum tolerated dose, the mice are supplemented with 30 and 20 mgs/0.1 ml by gavage daily for 21 days. Compound 1 is dissolved in 100% ethanol at 2 grams of compound 1/5 mls of ethanol, and diluted in peanut oil (nonsupplemented vitamin E) to yield 30 and 20 mgs of compound 1 per 0.1 ml. Vehicle control consisted of a mixture of ethanol and peanut oil equivalents. The preclinical chemotherapeutic studies are conducted with compound 1, utilizing human MDA-MB-435 human breast cancer cells, human DU-145 prostate cancer cells, and human HT-20 colon tumor cells transplanted into Balb/c immune compromised nude mice.
(§2) A total of 40 immune compromised nude mice are utilized for testing each test compound (two treatment groups at 20 and 30 mg/day) in each tumor cell type. […] Tumor cells are transplanted subcutaneously into the left flank and permitted to grow to approximately 70 mg in size, test compound treatments by daily gavage are initiated, and continue for a total of 21 days. Mice are monitored daily for tumor size by caliper measurements. Mice are treated for 21 days; however, the mice are sacrificed when the tumors of the vehicle control reached 500 mg in weight. At the completion of the protocol, tumors are excised and tumor size established by weight. At the time of sacrifice, serum, tumor, and heart muscle are taken from animals in the two compound 1 test groups in order to establish levels of compound 1 via HPLC analyses (data not included). The chemotherapeutic effectiveness of compound 1 administered daily at 30 and 20 mgs/day is determined by comparing the tumor size of the two treatment groups with the vehicle control group for each of the three tumor types, and by comparing the size of the tumor in the two treatment groups with the tumor group from the positive control. Treatment is for 21 days, experiments are continued until mean weight of tumor for vehicle control reaches 500 mgs.

MDA-MB-231 = assay: Bioassay for apoptosis (apoptotic EC50); type: cell-based, human; conditions: for apoptotic EC50: MDA-MB-231, unit not given, in µg/mL; for EC50: Homo sapiens, MDA-MB-231, MDA-MB-231, unit inferred
Protocol: (§3) Cells were cultured at 1.5×10^5 cells/well in 12 well plates. Cells were allowed to adhere overnight, then incubated with novel test compounds at 0.01, 0.1, 1, 5, 10 & 20 μg/mL for 1, 2 and 3 days. After treatment, cells (floating+trypsin released adherent cells) were pelleted, washed and stained with 2 μg/ml DAPI (4′,6-diamidine-2′-phenylindole dihydrochloride) in 100% methanol for 15 minutes at 37° C. and/or 3′-OH ends resulting from DNA fragmentation were detected with the TUNEL (terminal deoxynucleotidyl transferase-mediated dUTP-X 3′ nick end-labeling) technique, and then viewed using a Zeiss ICM 405 microscope. Cells whose nucleus contained clearly condensed or fragmented chromatin or stained for fragmented DNA in the TUNEL assay were scored as apoptotic. Data are presented as percent cells undergoing apoptosis.

HL-60 = assay: Bioassay for apoptosis (apoptotic EC50); type: cell-based, human; conditions: for apoptotic EC50: HL-60, unit not given, in µg/mL
Protocol: as §3

LnCaP = assay: Bioassay for apoptosis (apoptotic EC50); type: cell-based, human; conditions: for apoptotic EC50: unit not given, in µg/mL; for EC50: Homo sapiens, unit inferred
Protocol: as §3

MDA-MB-435 = assay: Bioassay for apoptosis (apoptotic EC50); type: cell-based, human; conditions: for apoptotic EC50: MDA-MB-435, unit not given; for EC50: Homo sapiens, MDA-MB-435, MDA-MB-435, unit inferred, read-out: apoptotic EC50
Protocol: as §3

ME-180 = assay: Bioassay for apoptosis (apoptotic EC50); type: cell-based, human; conditions: for apoptotic EC50: ME-180, unit not given, in µg/mL; for EC50: Homo sapiens, ME-180, ME-180, unit inferred
Protocol: as §3

C-170 = assay: Bioassay for apoptosis (apoptotic EC50); type: cell-based, human; conditions: for apoptotic EC50: C-170, unit not given, in µg/mL; for EC50: Homo sapiens, C170, C-170, unit inferred
Protocol: as §3

RL-95-2 = assay: Bioassay for apoptosis (apoptotic EC50); type: cell-based, human; conditions: for EC50: Homo sapiens, RL95-2, RL-95-2, unit inferred
Protocol: as §3

MCF-7 = assay: Bioassay for apoptosis (apoptotic EC50); type: cell-based, human; conditions: for apoptotic EC50: MCF-7, unit not given, in µg/mL; for EC50: Homo sapiens, MCF7, MCF-7, unit inferred
Protocol: as §3

PC-3 = assay: Bioassay for apoptosis (apoptotic EC50); type: cell-based, human; conditions: PC-3; unit not given; in µg/mL
Protocol: as §3

[2] = system: human cancer cells from a wide variety of cell lineages; assay: Apoptosis induction in a battery of tumor cells; type: cell-based; conditions: breast, prostate, leukemia/lymphoid, cervical, ovarian, endometrial, colon, lung cell lines
Protocol: as §3

[3] = system: MDA-MB-435 Human Breast Cancer Cells Transplanted into Nude Mice; assay: Preclinical chemotherapeutic xenograft study; type: in vivo; conditions: for Percent mean tumor weight gain (mg) following treatments / Mean tumor Weights (mg) Following Treatments: positive control 20 mg/kg i.p. daily for 5 days
Protocol: as §1, §2

[4] = system: DU-145 Human Prostate Cancer Cells Transplanted into Nude Mice; assay: Preclinical chemotherapeutic xenograft study; type: in vivo; conditions: for Mean tumor Weights (mg) Following Treatments / Percent mean tumor weight gain (mg) following treatments: positive control 1 mg/kg i.v. daily for 5 days
Protocol: as §1, §2

HMEC = assay: Bioassay for apoptosis (apoptotic EC50); type: cell-based; conditions: Homo sapiens, unit inferred
Protocol: as §3

MCF-10A = assay: Bioassay for apoptosis (apoptotic EC50); type: cell-based; conditions: Homo sapiens, unit inferred
Protocol: as §3

Compound: O=c1[nH]cc(F)c(=O)[nH]1 [Compound 5-FU, 5 Fluorouracil, reference compound]
Mean tumor Weights (mg) Following Treatments ([1]; day 1): 59.3 mg
Percent mean tumor weight gain (mg) following treatments ([1]; day 1): 100%
Mean tumor Weights (mg) Following Treatments ([1]; day 5): 87.5 mg
Percent mean tumor weight gain (mg) following treatments ([1]; day 5): 147.6%
Mean tumor Weights (mg) Following Treatments ([1]; day 8): 105.8 mg
Percent mean tumor weight gain (mg) following treatments ([1]; day 8): 178.4%
Mean tumor Weights (mg) Following Treatments ([1]; day 12): 145.8 mg
Percent mean tumor weight gain (mg) following treatments ([1]; day 12): 245.9%
Mean tumor Weights (mg) Following Treatments ([1]; day 15): 141.6 mg
Percent mean tumor weight gain (mg) following treatments ([1]; day 15): 247.2%
Mean tumor Weights (mg) Following Treatments ([1]; day 19): 212.3 mg
Percent mean tumor weight gain (mg) following treatments ([1]; day 19): 358.0%
Mean tumor Weights (mg) Following Treatments ([1]; day 22): 255.5 mg
Percent mean tumor weight gain (mg) following treatments ([1]; day 22): 430.0%
reduction of mean tumor growth vs vehicle control ([1]; positive control, 30 mg/kg daily for 5 days): 31.4%

Compound: Cc1c(C)c2c(c(C)c1OCCCC(=O)O)CC[C@@](C)(CCC[C@H](C)CCC[C@H](C)CCCC(C)C)O2 [Compound 3, 2,5,7,8-tetramethyl-(2R-(4R,8R,12-trimethyltridecyl)chroman-6-yloxy) butyric acid]
apoptotic EC50 (MDA-MB-231): 5-10
apoptotic EC50 (HL-60): 10-20
apoptotic EC50 (LnCaP): 5-10
apoptotic EC50 (MDA-MB-435; in µg/mL): 5-10
apoptotic EC50 (ME-180): 10-20
apoptotic EC50 (C-170): 10-20
apoptotic EC50 (RL-95-2; RL-95-2, unit not given, in µg/mL): 10-20
apoptotic EC50 (MCF-7): 20-30
apoptotic EC50 (PC-3): 5-10
growth inhibitory (apoptotic inducing) properties specific for human cancer cells [2]: effective

Compound: CC(=O)O[C@H]1C(=O)[C@@]2(C)[C@H]([C@H](OC(=O)c3ccccc3)[C@]3(O)C[C@H](OC(=O)[C@H](O)[C@@H](NC(=O)c4ccccc4)c4ccccc4)C(C)=C1C3(C)C)[C@]1(OC(C)=O)CO[C@@H]1C[C@@H]2O [Taxol, reference compound]
Percent mean tumor weight gain (mg) following treatments ([3]; day 1): 100%
Percent mean tumor weight gain (mg) following treatments ([3]; day 4): 101.1%
Mean tumor Weights (mg) Following Treatments ([3]; day 7): 38.2 mg
Percent mean tumor weight gain (mg) following treatments ([3]; day 7): −46.0%
Mean tumor Weights (mg) Following Treatments ([3]; day 10): 11.7 mg
Percent mean tumor weight gain (mg) following treatments ([3]; day 10): −83.7%
Mean tumor Weights (mg) Following Treatments ([3]; day 14): 5.7 mg
Percent mean tumor weight gain (mg) following treatments ([3]; day 14): −91.8%
Mean tumor Weights (mg) Following Treatments ([3]; day 17): 3.6 mg
Percent mean tumor weight gain (mg) following treatments ([3]; day 17): −99.5%
Mean tumor Weights (mg) Following Treatments ([3]; day 21): 6.8 mg
Percent mean tumor weight gain (mg) following treatments ([3]; day 21): −90.3%
reduction of mean tumor growth vs vehicle control ([3]; positive control, 20 mg/kg intraperitoneally daily for 5 days): 90.3%

Compound: Cc1c(C)c2c(c(C)c1OCCC(=O)O)CC[C@@](C)(CCC[C@H](C)CCC[C@H](C)CCCC(C)C)O2 [Compound 2, 2,5,7,8-tetramethyl-(2R-(4R,8R,12-trimethyltridecyl)chroman-6-yloxy) propionic acid]
apoptotic EC50 (MDA-MB-231): 10-20
apoptotic EC50 (HL-60): 10-20
apoptotic EC50 (LnCaP): 5-10
apoptotic EC50 (MDA-MB-435; in µg/mL): 10-20
apoptotic EC50 (ME-180): 5-10
apoptotic EC50 (C-170): 10-20
apoptotic EC50 (MCF-7): 20-30
apoptotic EC50 (PC-3): 5-10
growth inhibitory (apoptotic inducing) properties specific for human cancer cells [2]: effective

Compound: O=C1c2c(O)ccc(O)c2C(=O)c2c(NCCNCCO)ccc(NCCNCCO)c21 [Mitoxantrone, reference compound]
Mean tumor Weights (mg) Following Treatments ([4]; day 1): 66.8 mg
Percent mean tumor weight gain (mg) following treatments ([4]; day 1): 100%
Mean tumor Weights (mg) Following Treatments ([4]; day 5): 107.2 mg
Percent mean tumor weight gain (mg) following treatments ([4]; day 5): 160.5%
Mean tumor Weights (mg) Following Treatments ([4]; day 8): 141.1 mg
Percent mean tumor weight gain (mg) following treatments ([4]; day 8): 211.2%
Mean tumor Weights (mg) Following Treatments ([4]; day 12): 185.4 mg
Percent mean tumor weight gain (mg) following treatments ([4]; day 12): 277.5%
Mean tumor Weights (mg) Following Treatments ([4]; day 15): 205.2 mg
Percent mean tumor weight gain (mg) following treatments ([4]; day 15): 307.2%
Mean tumor Weights (mg) Following Treatments ([4]; day 19): 325.3 mg
Percent mean tumor weight gain (mg) following treatments ([4]; day 19): 487.0%
Mean tumor Weights (mg) Following Treatments ([4]; day 22): 389.4 mg
Percent mean tumor weight gain (mg) following treatments ([4]; day 22): 582.9%
reduction of mean tumor growth vs vehicle control ([4]; positive control, 1 mg/kg daily intravenously for 5 days): 27.9%

Continued, in another order:

apoptotic EC50 (ME-180): 1-5
Compound: 2-(2,5,7,8-tetramethyl-(2R-(4R,8,12-trimethyltridecyl)chroman-6-yloxy)triethylammonium sulfate [Compound 21]
growth inhibitory (apoptotic inducing) properties specific for human cancer cells [2]: effective

EC50 (MDA-MB-231): > 20 mg/L
EC50 (MDA-MB-435): > 20 mg/L
EC50 (MCF-7): > 20 mg/L
Compound: Cc1c(C)c2c(c(C)c1OCC(=O)O)CC[C@](C)(C(=O)O)O2 [Compound 16]

EC50 (MDA-MB-231): > 20 mg/L
EC50 (HL-60; Homo sapiens, HL-60, HL-60, unit inferred): > 20 mg/L
EC50 (LnCaP): > 20 mg/L
EC50 (MDA-MB-435): > 20 mg/L
EC50 (ME-180): > 20 mg/L
EC50 (C-170): > 20 mg/L
EC50 (RL-95-2): > 20 mg/L
EC50 (MCF-7): > 20 mg/L
EC50 (HMEC): > 20 mg/L
Compound: Cc1c(C)c2c(c(C)c1OCC(N)=O)CC[C@@](C)(CCC[C@H](C)CCC[C@H](C)CCCC(C)C)O2 [Compound 10, 2,5,7,8-tetramethyl-(2R-(4R,8R,12-trimethyltridecyl)chroman-6-yloxy)acetamide]
EC50 (MCF-10A): > 20 mg/L

EC50 (MDA-MB-231): 20 to 30 mg/L (≈ 40.9 to 61.4 µM)
EC50 (MDA-MB-435): 20 to 30 mg/L (≈ 40.9 to 61.4 µM)
EC50 (ME-180): > 20 mg/L
EC50 (C-170): > 20 mg/L
EC50 (RL-95-2): > 20 mg/L
EC50 (MCF-7): 20 to 30 mg/L (≈ 40.9 to 61.4 µM)
Compound: Cc1c(C)c2c(c(C)c1OCC(=O)O)CCC(C)(CCCC(C)CCCC(C)CCCC(C)C)O2 (racemic) [Compound 15, 2,5,7,8-tetramethyl-(2RS-(4RS,8RS,12-trimethyltridcyl)chroman-6-yloxy)acetic acid]
growth inhibitory (apoptotic inducing) properties specific for human cancer cells [2]: effective

EC50 (LnCaP): 10 to 20 mg/L (≈ 19.8 to 39.6 µM)
EC50 (MCF-7): 10 to 20 mg/L (≈ 19.8 to 39.6 µM)
Compound: C/C(=C\CSc1cc(C)c(OCC(=O)O)c(C)c1C)CCCC(C)CCCC(C)CCCC(C)C (stereo not drawn) [Compound 27, E.Z,RS,RS,RS-(phytyltrimethylbenzenethiol-6-yloxy)acetic acid]
growth inhibitory (apoptotic inducing) properties specific for human cancer cells [2]: effective

apoptotic EC50 (MDA-MB-435): PPT
Compound: Cc1c(C)c2c(c(C)c1N=Nc1ccc([N+](=O)[O-])cc1[N+](=O)[O-])CCC(C)(CCCC(C)CCCC(C)CCCC(C)C)N2 (stereo not drawn) [Compound 43]

apoptotic EC50 (MDA-MB-435; in µg/mL): 10-20
Compound: Cc1c(C)c(OCC(=O)O)c(C)c2c1NC(C)(CCCC(C)CCCC(C)CCCC(C)C)CC2 (stereo not drawn) [Compound 39, 1-Aza-α-tocopherol-6-yloxyl-acetic acid]
growth inhibitory (apoptotic inducing) properties specific for human cancer cells [2]: effective

From patent US8148424B2, “Tocopherols, tocotrienols, other chroman and side chain derivatives and uses thereof” (Research Development Foundation, priority 1998, dated 2012)
